Data set [1] has as its target T1, human mAChR M1 (Homo sapiens, UniProt P11229).
T1 construct: host or cells: CHO-K1 (stably transfected), membrane preparation
T1 sequence (P11229 1-460): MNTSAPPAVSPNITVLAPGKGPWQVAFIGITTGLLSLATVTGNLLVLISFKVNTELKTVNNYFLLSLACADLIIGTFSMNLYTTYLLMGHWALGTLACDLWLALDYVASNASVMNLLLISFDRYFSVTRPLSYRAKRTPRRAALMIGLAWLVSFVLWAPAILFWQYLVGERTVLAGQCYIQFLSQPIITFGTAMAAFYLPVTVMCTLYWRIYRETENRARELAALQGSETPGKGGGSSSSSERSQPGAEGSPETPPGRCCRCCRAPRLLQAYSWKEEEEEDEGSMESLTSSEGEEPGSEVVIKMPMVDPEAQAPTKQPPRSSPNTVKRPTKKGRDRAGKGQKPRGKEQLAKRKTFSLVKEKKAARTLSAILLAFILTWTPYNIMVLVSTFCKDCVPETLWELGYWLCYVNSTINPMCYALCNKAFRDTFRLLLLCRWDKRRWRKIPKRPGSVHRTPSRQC
Put plainly: Competitive [3H]NMS radioligand binding assay on CHO cell membranes, mAChR M1. As to conditions: for Ki: [3H]NMS 0.2 nM, CHO cell membranes with human receptor, 1.5 h at 20 °C, this work. The procedure: (§1) Filter bound decay rate is normalized to 1 for binding in absence of competitor and to 0 for nonspecific binding.
(§2) Membrane preparations of mAChR M1, M2, M3, M4 or M5 receptors were produced from the respective cell line as follows. The medium of a confluent T175 cell culture flask was poured off and the cell layer was washed with ice-cold PBS. Cells were scraped off and suspended in 2 mL 10 mM Tris/HCl, 1 mM EDTA buffer (pH 7.4) and 200 µL protease inhibitor cocktail. A cell homogenate obtained from passing the cell suspension through a G29 needle was centrifuged (10 min, 1,000 g, 4 °C).
(§3) A competitive radioligand binding assay using [^3H]NMS and variable concentrations of test compounds was performed in assay buffer (50 mM Tris/HCl, 10 mM MgCl2, 1 mM EDTA). Polypropylene tubes were filled with 5 µL aqueous solution of the test compounds, 50 µL radioligand solution in assay buffer and 445 µL membrane suspension in assay buffer (diluted approx. 1:100), shaken and incubated for 1.5 h at 20 °C. Nonspecific binding of the radioligand was determined by using 5 µL of a 1 µM scopolamine hydrobromide solution. […] Specific binding was calculated as total binding minus nonspecific binding. To delineate the IC50 value, specific binding was plotted against the logarithm of the test compound concentration and fitted by a variable slope logistic regression.
(§4) Table S3: HPLC parameters of the methods for the analysis of pirenzepine, telenzepine and their rearrangement products. LOD = limit of
(§5) detection, LOL = limit of linearityi
(§6) Stably transfected CHO-K1 cells containing human muscarinic receptors M1-M5 were purchased from Missouri
(§7) University of Science and Technology cDNA Resource Center (Cell Catalog#: CEM1000000, CEM2000000,
(§8) Limited) supplemented with 10% FBS (Gibco, Life Tec hnologies Limited) and 250 µg/mL Geneticin® (G418, Thermo
Fisher) at 37 °C and 5% CO2 in a cell incubator. Cells were passaged using Gibco Trypsin -EDTA (0.05%). A solution of
P2714-1BTL, Sigma-Aldrich in 10 mL water was used as protease inhibitor cocktail.

Data set [2] has as its target T2, human mAChR M4 (Homo sapiens, UniProt P08173).
T2 construct: host or cells: CHO-K1 (stably transfected), membrane preparation
T2 sequence (P08173 1-479): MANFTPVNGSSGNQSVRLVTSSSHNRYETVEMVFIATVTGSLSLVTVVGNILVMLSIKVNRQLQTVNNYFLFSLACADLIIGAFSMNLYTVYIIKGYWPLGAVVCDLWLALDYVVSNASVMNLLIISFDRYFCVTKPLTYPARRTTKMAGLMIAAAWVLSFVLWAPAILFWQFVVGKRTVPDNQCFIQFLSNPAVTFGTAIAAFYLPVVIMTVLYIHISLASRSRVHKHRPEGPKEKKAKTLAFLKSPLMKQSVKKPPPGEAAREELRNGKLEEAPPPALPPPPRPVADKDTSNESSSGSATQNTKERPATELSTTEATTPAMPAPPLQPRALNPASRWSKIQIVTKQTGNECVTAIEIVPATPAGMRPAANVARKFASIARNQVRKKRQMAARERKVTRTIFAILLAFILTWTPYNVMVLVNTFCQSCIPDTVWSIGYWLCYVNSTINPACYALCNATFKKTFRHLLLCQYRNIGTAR
Put plainly: Competitive [3H]NMS radioligand binding assay on CHO cell membranes, mAChR M4. To be noted: CHO cell membranes with human receptor, 1.5 h at 20 °C, this work. As for the experimental part: as §1, §2
as §3, with “solution. The concentration of the radioligand solution was chosen as 2 nM, 3 nM, 8 nM, 2 nM and 10 nM for M1-M5, respectively.” for “solution.”
as §4, §5, §6, §7, §8
(§9) Fisher) at 37 °C and 5% CO2 in a cell incubator. Cells were passaged using Gibco Trypsin -EDTA (0.05%). A solution of […]

For data set [3], the target named is T3, human mAChR M3 (Homo sapiens, UniProt P20309).
T3 construct: host or cells: CHO-K1 (stably transfected), membrane preparation
T3 sequence (P20309 whole entry): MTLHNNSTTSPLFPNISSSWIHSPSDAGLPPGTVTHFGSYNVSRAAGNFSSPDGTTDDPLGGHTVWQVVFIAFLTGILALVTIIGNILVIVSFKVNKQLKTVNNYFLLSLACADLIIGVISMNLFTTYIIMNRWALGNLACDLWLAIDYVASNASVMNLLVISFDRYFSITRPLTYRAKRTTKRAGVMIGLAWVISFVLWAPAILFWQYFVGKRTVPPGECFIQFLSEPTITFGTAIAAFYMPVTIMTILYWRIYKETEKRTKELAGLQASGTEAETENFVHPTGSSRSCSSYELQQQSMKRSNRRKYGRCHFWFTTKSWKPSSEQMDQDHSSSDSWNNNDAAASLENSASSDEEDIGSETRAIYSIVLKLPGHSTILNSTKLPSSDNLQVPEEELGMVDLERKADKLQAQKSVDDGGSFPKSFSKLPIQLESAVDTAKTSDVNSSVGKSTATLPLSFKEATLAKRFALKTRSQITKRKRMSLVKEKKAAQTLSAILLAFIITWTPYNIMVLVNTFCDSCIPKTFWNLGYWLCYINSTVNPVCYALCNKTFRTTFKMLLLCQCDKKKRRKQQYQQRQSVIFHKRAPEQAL
As to the kind of experiment: Competitive [3H]NMS radioligand binding assay on CHO cell membranes, mAChR M3. To be noted: CHO cell membranes with human receptor, 1.5 h at 20 °C, this work. As for the experimental part:
as §1, §2
as §3, with “solution. The concentration of the radioligand solution was chosen as 2 nM, 3 nM, 8 nM, 2 nM and 10 nM for M1-M5, respectively.” for “solution.”
as §4, §5, §6, §7, §8, §9

The target of data set [4] is T4, human mAChR M5 (Homo sapiens, UniProt P08912).
T4 construct: host or cells: CHO-K1 (stably transfected), membrane preparation
T4 sequence (P08912 1-532): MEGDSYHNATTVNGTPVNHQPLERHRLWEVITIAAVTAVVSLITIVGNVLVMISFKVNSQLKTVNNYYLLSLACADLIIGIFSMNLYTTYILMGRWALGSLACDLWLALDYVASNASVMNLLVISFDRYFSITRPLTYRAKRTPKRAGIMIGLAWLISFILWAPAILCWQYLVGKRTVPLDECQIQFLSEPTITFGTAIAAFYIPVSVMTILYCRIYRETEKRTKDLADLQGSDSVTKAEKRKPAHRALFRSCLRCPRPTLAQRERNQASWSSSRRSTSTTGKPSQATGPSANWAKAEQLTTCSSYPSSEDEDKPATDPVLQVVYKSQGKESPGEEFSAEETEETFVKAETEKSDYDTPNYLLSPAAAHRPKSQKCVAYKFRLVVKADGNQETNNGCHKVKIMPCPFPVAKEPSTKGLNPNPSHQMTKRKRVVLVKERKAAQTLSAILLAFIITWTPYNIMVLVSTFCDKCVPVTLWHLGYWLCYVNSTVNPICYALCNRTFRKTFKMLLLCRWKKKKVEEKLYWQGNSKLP
Put plainly: Competitive [3H]NMS radioligand binding assay on CHO cell membranes, mAChR M5. As to conditions: CHO cell membranes with human receptor, 1.5 h at 20 °C, this work. The procedure:
as §1, §2
as §3, with “solution. The concentration of the radioligand solution was chosen as 2 nM, 3 nM, 8 nM, 2 nM and 10 nM for M1-M5, respectively.” for “solution.”
as §4, §5, §6, §7, §8, §9

Data set [5] concerns CHO-K1 cells. Put plainly: MTT cytotoxicity assay toward CHO cell line. As to conditions: 72 h exposure, whole concentration range, up to 1 mM. In general terms: Tetrazolium dyes change colour on reduction, which living cells bring about.
Experimental: Cytotoxicity toward CHO Cell Line
Cytotoxicity was determined by means of a colorimetric microculture assay (MTT assay). For this purpose, CHO-K1
cells were harvested from culture flasks by trypsinization and seeded into 96-well microculture plates (Corning) in
densities of 4,000 viable cells/well. After a 24 h preincubation, cells were exposed to dilutions of the test compounds
in complete culture medium (200 µL/well) for 72 h. At the end of the exposure period, the compound solutions were
and MTT solution (MTT reagent in PBS, 20 µL/well, 5 mg/mL). After incubation for 4 h, the medium was removed, and
the formazan product was solved in DMSO (150 µL/well). Optical densities at 490 nm were measured with a microplate
reader (BioTek Synergy HTX multi-mode reader) using a reference wavelength of 690 nm to correct for unspecific
absorption. The quantity of viable cells was expressed in terms of T/C values by comparison to untreated controls.
Evaluations were based on means from at least three independent experiments, each comprising triplicates for each
Data set [6] has as its target T5, human mAChR M2 (Homo sapiens, UniProt P08172).
T5 construct: host or cells: CHO-K1 (stably transfected), membrane preparation
T5 sequence (P08172 1-466): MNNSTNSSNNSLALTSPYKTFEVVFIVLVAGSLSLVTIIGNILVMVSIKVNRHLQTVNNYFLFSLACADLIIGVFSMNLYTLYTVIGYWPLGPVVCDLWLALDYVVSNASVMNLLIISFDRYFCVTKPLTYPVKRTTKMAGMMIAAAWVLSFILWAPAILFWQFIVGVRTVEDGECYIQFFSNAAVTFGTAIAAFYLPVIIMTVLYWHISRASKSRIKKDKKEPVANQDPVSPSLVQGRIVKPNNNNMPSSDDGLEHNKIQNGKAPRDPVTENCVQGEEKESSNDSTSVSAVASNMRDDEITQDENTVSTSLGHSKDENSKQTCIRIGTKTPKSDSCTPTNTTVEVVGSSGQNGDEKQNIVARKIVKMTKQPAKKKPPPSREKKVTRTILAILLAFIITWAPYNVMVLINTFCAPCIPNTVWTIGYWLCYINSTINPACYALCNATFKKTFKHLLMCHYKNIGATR
Put plainly: Competitive [3H]NMS radioligand binding assay on CHO cell membranes, mAChR M2. As to conditions: CHO cell membranes with human receptor, 1.5 h at 20 °C, this work. As for the experimental part:
as §1, §2
as §3, with “solution. The concentration of the radioligand solution was chosen as 2 nM, 3 nM, 8 nM, 2 nM and 10 nM for M1-M5, respectively.” for “solution.”
as §4, §5, §6, §7, §8, §9

The nature of data set [7]: Thermal stability of pure crystalline solid. As to conditions: 100 °C for 12 h. The data set is classed as physicochemical.
Data set [8] in a line: Rearrangement in simulated gastric fluid or equimolar aqueous HCl (HPLC). Type of data set: physicochemical. As to conditions: 0.08 M aq. HCl, 1 g/L NaCl and 1.6 g/L pepsin, 6 h at 37 °C.
The nature of data set [9]: Kinetics of acid-catalysed rearrangement of 2 to 4 in aqueous HCl (HPLC). To be noted: for half-life at 50 µg/mL: 6 M aqueous HCl, Half life of rearrangement, initial concentration 50 µg/mL, n = 3.
Experimental: We propose that this reaction proceeds via lactam hydrolysis and subsequent condensation of the resulting primary amine with the exocyclic carbonyl group (Fig. 4B).
The conversion is calculated normalized to the maximum area under the curve of 4. […] B: Reaction scheme showing the proposed reactive intermediate. Oxygens in the carboxylic acid group are indistinguisable, but for reasons of clarity only one of them is coloured like the hydrolyzing water.
The activation energy (EA) was determined from linear regression based on the linearized Arrhenius equation (ln(k) = − EA/(RT) + ln(A)).
Data set [10] addresses mAChR M1. As to conditions: read-out: Ki mAChR M1; 90 min at 37 °C, transfected A9L cells; cited from earlier work.
The target in data set [11] is mAChR M2. To be noted: read-out: Ki mAChR M2; 90 min at 37 °C, membranes from rat heart tissue; cited from earlier work.
Data set [12] has as its target mAChR M3. Also noted: method as in PMID 2066986. To be noted: 90 min at 37 °C, transfected A9L cells; cited from earlier work.
The target in data set [13] is mAChR M4. As to conditions: read-out: Ki mAChR M4; 90 min at 37 °C, NG108-15 cells; cited from earlier work.

“Also recorded” adds a separate entry of the source. Structures can show the parent of a compound that is named as a salt.

A word on the Ki: it is the dissociation constant of the complex between target and ligand, obtained from inhibition or displacement. For the molecule `Cc1scc(C(=O)O)c1-n1c(CN2CCN(C)CC2)nc2ccccc21` [Compound 5, 5-methyl-4-(2-((4-methylpiperazin-1-yl)methyl)-1H-benzo[d]imidazol-1-yl)thiophene-3-carboxylic acid], the Ki in data set [1] came out at 1.4 ± 0.3 µM; in data set [2], 2 ± 0.4 µM; in data set [3] it was 8 ± 3 µM; in data set [4], 4.1 ± 0.2 µM; in [6], 10.6 ± 1.5 µM. Also, the “Effect on cell viability (MTT assay)” value in [5] was “No cytotoxic effect; also recorded: without measurable effect on cell viability”.
In general, half-life refers to how long it takes for the measured level to halve. In the case of `CN1CCN(CC(=O)N2c3ccccc3C(=O)Nc3cccnc32)CC1` [Compound 2, Pirenzepine dihydrochloride], the “Formation of 4 on heating the solid” value in [7] is reported as “did not result in formation of 4 in detectable amounts”. In data set [8], the “Isomerization of 2 to 4 in simulated gastric fluid” value was “neither simulated gastric fluid (0.08 M aq. HCl, 1 g/L NaCl and 1.6 g/L pepsin) nor equimolar aqueous HCl solution caused detectable isomerization”. Also, the “Formation of 4 from 2” value in data set [9] (0.1 M aqueous HCl at 37 °C, 55 °C or 75 °C overnight) is given as under 1%. The “Activation energy of the rearrangement” value in data set [9] (6 M HCl, from slope of Arrhenius plot) is 19.9 ± 0.454 kcal/mol. In addition, the half-life at 50 µg/mL was found to be 13.8 ± 0.5 h in data set [9] (6 M HCl, 37 °C); 1.95 ± 0.267 h in data set [9] (6 M HCl, 55 °C); 0.417 ± 0.0333 h in [9] (6 M HCl, 75 °C). Besides, in data set [9] (strong excess of aqueous HCl (6 M), pseudo first order kinetic), the “Conversion of 2 to 4” value is listed as “quantitative conversion”. In data set [5], the “Effect on cell viability (MTT assay)” value was “No cytotoxic effect”.
Take `CN1CCN(Cc2nc3cccnc3n2-c2ccccc2C(=O)O)CC1.Cl.Cl` [Compound 4, 2-(2-((4-methylpiperazin-1-yl)methyl)-3H-imidazo[4,5-b]pyridin-3-yl)benzoic acid dihydrochloride]: the Ki stood at 0.6 ± 0.02 µM in data set [1]; 1.2 ± 0.2 µM in [2]; 7 ± 2 µM in data set [3]; 0.36 ± 0.02 µM in data set [4]; 47 ± 19 µM in data set [6]. Further, the “Effect on cell viability (MTT assay)” value in data set [5] is given as “No cytotoxic effect; also recorded: without measurable effect on cell viability”.
On to `Cc1scc2c1N(C(=O)CN1CCN(C)CC1)c1ccccc1NC2=O` [telenzepine 2HCl, Telenzepine dihydrochloride], for which the Ki in data set [1] is 0.0018 ± 0.0008 µM; in data set [2], 0.029 ± 0.016 µM; in data set [10], 0.0018 µM; in data set [11], 0.0503 µM; in data set [3], 0.012 ± 0.002 µM; in [12], 0.0069 µM. The Ki in data set [4] is 0.016 ± 0.009 µM; in [13], 0.0174 µM; in data set [6], 0.026 ± 0.005 µM. Besides, the “Loss of affinity towards M1 on rearrangement (affinity constant of rearranged product vs parent)” value in data set [1] (rearranged product (4 or 5) versus parent drug) is on record as 780 fold. Moreover, in data set [5], the “Effect on cell viability (MTT assay)” value was “No cytotoxic effect”.

Source of the values: article PMC8642400, “Unexpected scaffold rearrangement product of pirenzepine found in commercial samples” (Scientific Reports, 2021).
